Among the data in patent US8501992B2, “Hydroxyphenyl sulfonamides as antiapoptotic bcl inhibitors” (Bristol-Myers Squibb Company, priority 2008, dated 2013) are Ki values, retold here.

Common to all, as to type: binding
The target of one test is T1, Bcl-2 (Homo sapiens, UniProt P10415).
T1 construct: without their C-terminal transmembrane domain; GST; made in house
The test can be described thus: Bcl2/Bim fluorescence polarization assay (FPA). The following applies: BIM BH3 peptide 5 nM, Bcl-2 11 nM, Ki calculated from FPA data. The text has this:
(§1) Compounds were profiled for their ability to disrupt in vitro binding interactions in fluorescence polarization assays (FPAs) using synthetic fluorochrome-labeled Bcl homology 3 (BH3) peptides derived from BIM [(FAM)-Ahx-[…]-NH2 (SEQ ID NO: 1) (GenBank Accession No. O43521)] or BAK [Ac-GQVGRQLAIIGE-LYS(FAM)-INR-NH2 (SEQ ID NO:2) (GenBank Accession No. Q16611) amino acid sequences and four bacterial recombinant proteins [Bcl-b (GenBank Accession No. Q9HD36), Bcl-2 (GenBank Accession No. P10415), Bcl-Xl (GenBank Accession No. Q07817), Mcl-1 (GenBank Accession No. Q07820)] without their C-terminal transmembrane domain. Proteins were purified from bacterial lysates using their glutathione S-transferase (GST)-tag (Bcl-b, Bcl-2, Mcl-1) or His6-tag (Bcl-Xl) and following one-step affinity chromatography procedures. Dissociation constants (Kd) for peptide binding protein were determined by fluorescence polarization in FPAs measuring BIM BH3 peptide binding Bcl-b, Mcl-1 or Bcl-2 protein or BAK BH3 peptide binding Bcl-Xl protein. The Kd values were generated by fitting the experimental data using a sigmoidal dose-response nonlinear regression model.
(§2) Compound inhibitory concentration values, IC50 (50% reduction in fluorescence polarization), were determined using fluorochrome-labeled BH3 peptides and recombinant Bcl proteins in fluorescence polarization assays (FPAs). Compounds diluted in DMSO (0.5 ul) were transferred (in duplicate) to individual wells of a 384-well plate. The fluorochrome-labeled peptide was added followed by recombinant protein addition. Each binding FPA reaction (50 ul) contained BIM BH3 peptide (5 nM) or BAK BH3 peptide (1.5 nM) and Bcl-b (40 nM), Mcl-1 (28 nM), Bcl-2 (11 nM) or Bcl-Xl. (5 nM) protein suspended in assay buffer [20 mM sodium phosphate, pH 7.4, 1 mM EDTA, 50 mM NaCl., 0.05% Pluronic F68]. Reaction mixtures were incubated at ambient temperature for 60 minutes prior to measuring polarization (mP) using an Analyst (LJL, Molecular Devices, Sunnyvale, Calif.) programmed to detect an emission wavelength of 530 nm after excitation (excitation wavelength=485 nm).
(§3) Competitive compound inhibition constants (Ki) were calculated using FPA experimental data and a mathematical equation, Ki=[I]50/([L]50/Kd+[P]0/Kd+1), where [I]50 denotes free inhibitor concentration at 50% inhibition, [L]50 is free labeled ligand concentration at 50% inhibition, [P]0 is free protein concentration at 0% inhibition, and Kd is the dissociation constant of the protein-ligand complex.

The next test addresses T2, Mcl-1 (Homo sapiens, UniProt Q07820).
T2 construct: without their C-terminal transmembrane domain; GST; made in house
The test can be described thus: Mcl-1/Bim fluorescence polarization assay (FPA). The following applies: BIM BH3 peptide 5 nM, Mcl-1 28 nM, Ki calculated from FPA data.
Description: as §1, §2, §3

In a further test the target is T3, Bcl-b (Homo sapiens, UniProt Q9HD36).
T3 construct: without their C-terminal transmembrane domain; GST; made in house
T3 sequence (Q9HD36 1-182 limits assumed): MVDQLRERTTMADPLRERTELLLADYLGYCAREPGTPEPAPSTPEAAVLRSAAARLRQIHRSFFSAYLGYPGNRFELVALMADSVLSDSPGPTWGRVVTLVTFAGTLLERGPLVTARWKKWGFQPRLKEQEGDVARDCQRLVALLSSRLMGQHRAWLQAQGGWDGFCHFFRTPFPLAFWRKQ
The test can be described thus: Bclb/Bim fluorescence polarization assay (FPA). As to conditions: BIM BH3 peptide 5 nM, Bcl-b 40 nM, Ki calculated from FPA data.
Description: as §1, §2, §3

T2 sequence (Q07820 1-327 limits assumed): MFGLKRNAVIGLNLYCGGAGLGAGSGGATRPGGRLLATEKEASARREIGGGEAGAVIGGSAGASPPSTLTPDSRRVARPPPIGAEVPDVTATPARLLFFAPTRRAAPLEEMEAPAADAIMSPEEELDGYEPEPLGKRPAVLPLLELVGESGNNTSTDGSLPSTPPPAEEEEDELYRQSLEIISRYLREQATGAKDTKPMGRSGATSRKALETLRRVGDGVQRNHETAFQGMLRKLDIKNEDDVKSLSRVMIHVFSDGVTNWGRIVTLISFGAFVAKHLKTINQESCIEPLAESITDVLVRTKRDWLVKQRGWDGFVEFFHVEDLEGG
T1 sequence (P10415 1-211 limits assumed): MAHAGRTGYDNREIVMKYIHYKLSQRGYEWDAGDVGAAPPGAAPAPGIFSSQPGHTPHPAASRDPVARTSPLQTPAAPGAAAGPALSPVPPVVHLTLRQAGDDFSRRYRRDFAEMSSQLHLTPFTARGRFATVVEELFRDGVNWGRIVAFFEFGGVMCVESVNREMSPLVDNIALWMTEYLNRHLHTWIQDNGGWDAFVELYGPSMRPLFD

A word on the Ki: it is the dissociation constant of the complex between target and ligand, obtained from inhibition or displacement. In the case of `O=C(NCCCO)c1cc(Cl)c(O)c(S(=O)(=O)N(Cc2ccc(F)cc2)Cc2cccc(-c3ccc(Cl)cc3)c2)c1` [Example 213, 3-Chloro-5-(N-((4′-chlorobiphenyl-3-yl)methyl)-N-(4-fluorobenzyl)-sulfamoyl)-4-hydroxy-N-(3-hydroxypropyl)benzamide], the Ki on Bcl-2 is 1220 nM; at Mcl-1, 2700 nM; on Bcl-b, 470 nM.
Taken in the same sequence, the figures for `O=C(NCC(O)CO)c1cc(Cl)c(O)c(S(=O)(=O)N(Cc2ccc(F)cc2)Cc2cccc(-c3ccc(Cl)cc3)c2)c1` (stereo not drawn) [Example 214, 3-Chloro-5-(N-((4′-chlorobiphenyl-3-yl)methyl)-N-(4-fluorobenzyl)-sulfamoyl)-N-(2,3-dihydroxypropyl)-4-hydroxybenzamide] were 1800 nM, 1640 nM and 610 nM.
For `O=C(NCc1ccccc1)c1cc(Cl)c(O)c(S(=O)(=O)N(Cc2ccc(F)cc2)Cc2ccc(Oc3ccc(C(F)(F)F)cc3)cc2)c1` [Example 219, N-Benzyl-3-chloro-5-(N-(4-fluoro-benzyl)-N-(4-(4-(trifluoromethyl)-phenoxy)benzyl)sulfamoyl)-4-hydroxybenzamide], in that order: 170 nM, 40 nM and 120 nM.
As for `COc1c(Cl)cc(CN(CCn2ccc3ccccc32)S(=O)(=O)c2cc(C(=O)NCc3ccccc3)cc(Cl)c2O)cc1-c1ccc(Cl)cc1` [Example 222, 3-(N-(2-(1H-Indol-1-yl)ethyl)-N-((4′,5-dichloro-6-methoxybiphenyl-3-yl)methyl)sulfamoyl)-N-benzyl-5-chloro-4-hydroxybenzamide], the inhibition constant Ki is 170 nM at Bcl-2, 30 nM at Mcl-1 and 30 nM at Bcl-b.
Take `COC(=O)c1cc(Cl)cc(S(=O)(=O)N(Cc2ccc(F)cc2)Cc2cccc(-c3ccc(Cl)cc3)c2)c1O` [Example 226, Methyl 5-chloro-3-(N-((4′-chloro-biphenyl-3-yl)methyl)-N-(4-fluorobenzyl)sulfamoyl)-2-hydroxybenzoate]: the figures for the inhibitory constant (Ki) at Bcl-2, on Mcl-1 and at Bcl-b were 3730 nM, 2280 nM and 500 nM, respectively.
For `O=S(=O)(c1cc(Cl)cc(Cl)c1O)N(Cc1ccc(F)cc1)Cc1cccc(-c2ccc(Cl)cc2)c1` [Example 232, 3,5-Dichloro-N-((4′-chlorobiphenyl-3-yl)methyl)-N-(4-fluorobenzyl)-2-hydroxybenzenesulfonamide], in that order: 90 nM, 50 nM and 90 nM.
With `CCCCCCCCc1ccc(CN(Cc2cccc(Oc3ccc(F)cc3)c2)S(=O)(=O)c2cc(Cl)cc(Cl)c2O)cc1` [Example 235, 3,5-Dichloro-N-(3-(4-fluorophenoxy)benzyl)-2-hydroxy-N-(4-octylbenzyl)benzenesulfonamide], the inhibition constant (Ki) is 80 nM on Bcl-2, 40 nM at Mcl-1 and 60 nM on Bcl-b.
Taken in the same sequence, the figures for `COc1c(CN(Cc2ccc(F)cc2)S(=O)(=O)c2cc(Cl)cc(Cl)c2O)cccc1-c1ccc(Cl)cc1` [Example 240, 3,5-Dichloro-N-((4′-chloro-2-methoxybiphenyl-3-yl)methyl)-N-(4-fluorobenzyl)-2-hydroxybenzenesulfonamide] were 120 nM, 470 nM and 110 nM.
Taken in the same sequence, the figures for `CCCCc1ccc(-c2cccc(CN(Cc3ccc(F)cc3)S(=O)(=O)c3cc(Cl)cc(Cl)c3O)c2)cc1` [Example 256, N-((4′-Butylbiphenyl-3-yl)methyl)-3,5-dichloro-N-(4-fluorobenzyl)-2-hydroxybenzenesulfonamide] were 130 nM, 2120 nM and 140 nM.
For `Cc1cccc(CN(Cc2ccc(F)cc2)S(=O)(=O)c2cc(Cl)cc(Cl)c2O)c1` [Example 266, 3,5-Dichloro-N-(4-fluorobenzyl)-2-hydroxy-N-(3-methylbenzyl)benzenesulfonamide], in that order: 720 nM, 1680 nM and 300 nM.
Take `O=S(=O)(c1cc(Cl)cc(Cl)c1O)N(Cc1ccc(Cl)cc1)Cc1cccc(-c2ccc(Cl)cc2)n1` [Example 274, 3,5-Dichloro-N-(4-chlorobenzyl)-N-((6-(4-chlorophenyl)pyridin-2-yl)methyl)-2-hydroxybenzenesulfonamide]: the Ki on Bcl-2 is 520 nM; at Mcl-1 it was 1570 nM; at Bcl-b, 450 nM.
